This note sets out measurements from paper doi:10.1101/2023.01.11.523589v2 (biorxiv, 2023).

The IC50 is the concentration that inhibits the measured activity by half. Low readings indicate greater potency in that assay, high ones weaker potency in that assay.

Test [1] concerns the target T1, HiBIT-WDR5 (Homo sapiens, UniProt P61964). Briefly: cell-based. The settings on record: HEK-293T, read-out: CETSA thermal shifts [°C]. Also noted: species or system HEK293T HiBIT-WDR5.
Test [2] has as its target T1, HiBIT-WDR5. Briefly: cell-based. Also noted: species or system HEK293T HiBIT-WDR5. The note with it: HEK-293T, read-out: Dmax (23-24h) at 7.5 µM in %.
Test [3] concerns the target HiBIT-WDR5 (HiBIT-tagged full length WDR5) (Homo sapiens, UniProt P61964). Briefly: in vitro NanoBRET tracer displacement. Format: binding. On the technique in general: Bioluminescence resonance energy transfer reports proximity on the nanometre scale.

Regarding `CC(=O)N[C@H](C(=O)N1C[C@H](O)C[C@H]1C(=O)NCc1ccc(-c2scnc2C)cc1)C(C)(C)C` [VH032], in test [1], the ΔTm at 10 µM was 2.6 °C.

As for `Cc1ncsc1-c1ccc([C@H](C)NC(=O)[C@@H]2C[C@@H](O)CN2C(=O)[C@@H](NC(=O)CNC(=O)c2ccc(F)c(-c3ccc(N4C[C@@H](C)N(C)[C@@H](C)C4)c(NC(=O)c4c[nH]c(=O)cc4C(F)(F)F)c3)c2)C(C)(C)C)cc1` [MS67], in test [1], the ΔTm at 10 µM was 13.8 °C. Further, the Dmax at 7.5 µM in test [2] worked out at 69 ± 4%.

As to `Cc1ncsc1-c1ccc([C@H](C)NC(=O)[C@H]2C[C@H](O)CN2C(=O)[C@@H](NC(=O)CNC(=O)c2ccc(F)c(-c3ccc(N4C[C@@H](C)N(C)[C@@H](C)C4)c(NC(=O)c4c[nH]c(=O)cc4C(F)(F)F)c3)c2)C(C)(C)C)cc1` [MS67N], the ΔTm at 10 µM in test [1] amounted to 11.6 °C.

As for `CC(=O)N[C@H](C(=O)N1C[C@H](O)C[C@H]1C(=O)NCc1ccc(-c2scnc2C)cc1)C(C)(C)C` [VH032, reference compound], in test [3], the IC50 was greater than 3 µM.
